# Data taken from ChEMBL document CHEMBL5724914, “Linking interpersonal differences in gut microbiota composition and drug biotransformation activity” (2024).
# Assays:
# [1] = (§1) The drug is tested on Z-012 corresponding to metagenome with ENA study accession number: PRJEB37062 and ENA sample accession number: ERS12561812 for biotransformation under anaerobic condition. The drug concentrations were measured over 9 timepoints collected between 0 and 24 hours of incubation by liquid-chromatography-coupled mass spectrometry (LC–MS); conditions: 2 µM
# [2] = human gut metagenome, 24 h, 2 µM
# [3] = (§2) The drug is tested on Z-024 corresponding to pig gut metagenome with ENA study accession number: PRJEB37062 and ENA sample accession number: ERS12561823 for biotransformation under anaerobic condition. The drug concentrations were measured over 9 timepoints collected between 0 and 24 hours of incubation by liquid-chromatography-coupled mass spectrometry (LC–MS); conditions: 2 µM
# [4] = as §2, with “Z-009” for “Z-024”, “ERS12561809” for “ERS12561823”; conditions: 2 µM
# [5] = as §2, with “Z-017” for “Z-024”, “mouse” for “pig”, “ERS12561816” for “ERS12561823”; conditions: 2 µM
# [6] = human gut metagenome, 24 h, 2 µM; remark: listed apart in the source
# [7] = as §1, with “Z-010” for “Z-012”, “ERS12561810” for “ERS12561812”; conditions: 2 µM
# [8] = human gut metagenome, 24 h, 2 µM; remark: listed apart in the source
# [9] = as §2, with “WLS-240” for “Z-024”, “human” for “pig”, “ERS12561773” for “ERS12561823”; conditions: 2 µM
# [10] = as §2, with “WLS-310” for “Z-024”, “human” for “pig”, “ERS12561785” for “ERS12561823”; conditions: 2 µM
# [11] = as §2, with “Z-018” for “Z-024”, “ERS12561817” for “ERS12561823”; conditions: 2 µM
# [12] = human gut metagenome, 24 h, 2 µM; remark: listed apart in the source
# [13] = as §2, with “WLS-010” for “Z-024”, “human” for “pig”, “ERS12561743” for “ERS12561823”; conditions: 2 µM
# [14] = as §2, with “Z-019” for “Z-024”, “rat” for “pig”, “ERS12561818” for “ERS12561823”; conditions: 2 µM
# [15] = as §2, with “Z-003” for “Z-024”, “ERS12561803” for “ERS12561823”; conditions: 2 µM
# [16] = human gut metagenome, 24 h, 2 µM; remark: listed apart in the source
# [17] = as §1, with “Z-027” for “Z-012”, “ERS12561826” for “ERS12561812”; conditions: 2 µM
# [18] = human gut metagenome, 24 h, 2 µM; remark: listed apart in the source
# [19] = as §2, with “WLS-370” for “Z-024”, “human” for “pig”, “ERS12561793” for “ERS12561823”; conditions: 2 µM
# [20] = as §2, with “WLS-052” for “Z-024”, “human” for “pig”, “ERS12561747” for “ERS12561823”; conditions: 2 µM
# Further: call rule not given here.
Compound,Bacterial Biotransformation [1],Bacterial Biotransformation [2],Bacterial Biotransformation [3],Bacterial Biotransformation [4],Bacterial Biotransformation [5],Bacterial Biotransformation [6],Bacterial Biotransformation [7],Bacterial Biotransformation [8],Bacterial Biotransformation [9],Bacterial Biotransformation [10],Bacterial Biotransformation [11],Bacterial Biotransformation [12],Bacterial Biotransformation [13],Bacterial Biotransformation [14],Bacterial Biotransformation [15],Bacterial Biotransformation [16],Bacterial Biotransformation [17],Bacterial Biotransformation [18],Bacterial Biotransformation [19],Bacterial Biotransformation [20]
COCCc1ccc(OCC(O)CNC(C)C)cc1.COCCc1ccc(OCC(O)CNC(C)C)cc1.O=C(O)C(O)C(O)C(=O)O (stereo not given) [METOPROLOL TARTRATE],Compound NOT metabolized,Compound NOT metabolized,Compound NOT metabolized,Compound NOT metabolized,Compound NOT metabolized,Compound metabolized,Compound metabolized,Compound metabolized,Compound metabolized,Compound metabolized,Compound NOT metabolized,Compound metabolized,Compound NOT metabolized,Compound NOT metabolized,Compound metabolized,Compound NOT metabolized,Compound NOT metabolized,Compound NOT metabolized,Compound metabolized,Compound NOT metabolized
COc1c(C)c2c(c(O)c1C/C=C(\C)CCC(=O)OCCN1CCOCC1)C(=O)OC2 [MYCOPHENOLATE MOFETIL],Compound metabolized,Compound metabolized,Compound metabolized,Compound metabolized,Compound metabolized,Compound metabolized,Compound metabolized,Compound metabolized,Compound metabolized,Compound metabolized,Compound metabolized,Compound metabolized,Compound metabolized,Compound NOT metabolized,Compound metabolized,Compound metabolized,Compound metabolized,Compound metabolized,Compound metabolized,Compound metabolized
CCN(CC)CCOC(=O)C(Cc1cccc2ccccc12)CC1CCCO1.O=C(O)C(=O)O (stereo not given) [NAFRONYL OXALATE],Compound metabolized,Compound NOT metabolized,Compound metabolized,Compound metabolized,Compound NOT metabolized,Compound metabolized,Compound metabolized,Compound metabolized,Compound metabolized,Compound metabolized,Compound metabolized,Compound metabolized,Compound metabolized,Compound NOT metabolized,Compound metabolized,Compound metabolized,Compound NOT metabolized,Compound NOT metabolized,Compound NOT metabolized,Compound metabolized
CCc1nn(CCCN2CCN(c3cccc(Cl)c3)CC2)c(=O)n1CCOc1ccccc1 [NEFAZODONE],Compound NOT metabolized,Compound NOT metabolized,Compound NOT metabolized,Compound NOT metabolized,Compound NOT metabolized,Compound NOT metabolized,Compound NOT metabolized,Compound metabolized,Compound metabolized,Compound metabolized,Compound NOT metabolized,Compound metabolized,Compound metabolized,Compound NOT metabolized,Compound NOT metabolized,Compound NOT metabolized,Compound NOT metabolized,Compound metabolized,Compound NOT metabolized,Compound metabolized
CN1CCOC(c2ccccc2)c2ccccc2C1 (stereo not given) [NEFOPAM],Compound NOT metabolized,Compound metabolized,Compound NOT metabolized,Compound NOT metabolized,Compound NOT metabolized,Compound metabolized,Compound NOT metabolized,Compound metabolized,Compound NOT metabolized,Compound NOT metabolized,Compound NOT metabolized,Compound metabolized,Compound metabolized,Compound NOT metabolized,Compound NOT metabolized,Compound metabolized,Compound NOT metabolized,Compound NOT metabolized,Compound metabolized,Compound NOT metabolized
Cc1ccnc2c1NC(=O)c1cccnc1N2C1CC1 [NEVIRAPINE],Compound NOT metabolized,Compound metabolized,Compound NOT metabolized,Compound NOT metabolized,Compound NOT metabolized,Compound NOT metabolized,Compound NOT metabolized,Compound metabolized,Compound metabolized,Compound metabolized,Compound NOT metabolized,Compound metabolized,Compound NOT metabolized,Compound NOT metabolized,Compound NOT metabolized,Compound NOT metabolized,Compound NOT metabolized,Compound metabolized,Compound metabolized,Compound NOT metabolized
CO[C@]12C[C@@H](COC(=O)c3cncc(Br)c3)CN(C)[C@@H]1Cc1cn(C)c3cccc2c13 [NICERGOLINE],Compound NOT metabolized,Compound metabolized,Compound metabolized,Compound metabolized,Compound NOT metabolized,Compound NOT metabolized,Compound metabolized,Compound NOT metabolized,Compound NOT metabolized,Compound NOT metabolized,Compound metabolized,Compound NOT metabolized,Compound metabolized,Compound NOT metabolized,Compound metabolized,Compound NOT metabolized,Compound metabolized,Compound NOT metabolized,Compound metabolized,Compound metabolized
